One assay concerns the target PKC. Put plainly: Kinase selectivity profiling, Z'-LYTE FRET. The note with it: read-out: IC50 (nM) PKC.
The next assay deals with A549 cells. The experiment in a line: Annexin V-FITC/PI apoptosis assay. In kind it is cell-based, human. The note with it: A549, 5 μM, 24 h; control 5.4% (10b), […] (10d). How it is done: Figure 7. Apoptotic effect of compounds 10b and 10d on A549 cells. (A) Representative cytograms of apoptotic A549 cells stimulated with 0 (control), 2.5 or 5 μM 10b or 10d, for 24 h. The lower-right (annexin V + PI- cells) and the upper-right (annexin V + PI + cells) quadrants show early and late apoptotic cells, and the lower-left (annexin V-PI- cells) and the upper-left ([…]) quadrants represent viable and necrotic cells, respectively. (B) Quantification of annexin V-positive apoptotic cells upon stimulation with 10b or 10d. The values are the means ± SEM of three different experiments. *p < 0.05 and *p < 0.01 indicate significant differences compared with control.
DNA content was measured using 7-aminoactinmycin D (7AAD) (Biotium, Inc., Hayward, CA) staining and is commonly used for cell cycle phase analysis as previously described. Apoptosis was evaluated using the annexin V/propidium iodide (PI) staining kit (BioLegend, San Diego, CA) according to the manufacturer’s instructions and as previously described.

The next assay concerns the target EPHB2 (Homo sapiens, UniProt P29323). Put plainly: Kinase selectivity profiling, Z'-LYTE FRET.
A further assay addresses SYK (Homo sapiens, UniProt P43405). The experiment in a line: Kinase selectivity profiling, Z'-LYTE FRET.
Another assay has as its system A549 cells migration. The experiment in a line: Scratch wound healing assay. Type of assay: cell-based, human. The note with it: 36 h, vs control. Here is the method:
Figure 5. Effect of compounds 10b and 10d on A549 cells migration. […] Representative images of scratched areas in confluent A549 cell layers.
A549 cells were seeded and incubated in 6-well cell culture plates till reaching confluence. Then, the confluent monolayers were scratched to form a “wound” using a sterile needle. The cells were treated with either vehicle as a control, 10b or 10d for 36 h. The images were recorded at 0 and 36 h to monitor the migration of cells into the wounded area using a light photomicroscope.

Assay [1] deals with WI-38 human lung fibroblast cells. Put plainly: MTT cytotoxicity assay on normal cells. Type of assay: cell-based. The note with it: for IC50: Homo sapiens, WI-38, normal lung fibroblasts, MTT, 24 h, n = 3, read-out: IC50 (µM) ± SEM WI-38; for Mean tumour selectivity: S. I. (WI-38/A549 and H441). Here is the method:
All chemicals used in this study were analytical or cell-culture grade.
Cytotoxicity was measured using the MTT assay. […] The medium was aspirated and 150 μL DMSO was added to solubilise MTT formazan crystals. The plates were then shaken, and the optical density was determined at 570 nm using an ELISA plate reader (Model 550, Bio-Rad, Hercules, CA). At least three independent experiments were performed.
A general note: Formazan colour is commonly taken as a measure of viable cells.

The target of a further assay is ABL1 (Homo sapiens, UniProt P00519). The experiment in a line: Kinase selectivity profiling, Z'-LYTE FRET.
Chain of ABL1 (P00519 whole entry): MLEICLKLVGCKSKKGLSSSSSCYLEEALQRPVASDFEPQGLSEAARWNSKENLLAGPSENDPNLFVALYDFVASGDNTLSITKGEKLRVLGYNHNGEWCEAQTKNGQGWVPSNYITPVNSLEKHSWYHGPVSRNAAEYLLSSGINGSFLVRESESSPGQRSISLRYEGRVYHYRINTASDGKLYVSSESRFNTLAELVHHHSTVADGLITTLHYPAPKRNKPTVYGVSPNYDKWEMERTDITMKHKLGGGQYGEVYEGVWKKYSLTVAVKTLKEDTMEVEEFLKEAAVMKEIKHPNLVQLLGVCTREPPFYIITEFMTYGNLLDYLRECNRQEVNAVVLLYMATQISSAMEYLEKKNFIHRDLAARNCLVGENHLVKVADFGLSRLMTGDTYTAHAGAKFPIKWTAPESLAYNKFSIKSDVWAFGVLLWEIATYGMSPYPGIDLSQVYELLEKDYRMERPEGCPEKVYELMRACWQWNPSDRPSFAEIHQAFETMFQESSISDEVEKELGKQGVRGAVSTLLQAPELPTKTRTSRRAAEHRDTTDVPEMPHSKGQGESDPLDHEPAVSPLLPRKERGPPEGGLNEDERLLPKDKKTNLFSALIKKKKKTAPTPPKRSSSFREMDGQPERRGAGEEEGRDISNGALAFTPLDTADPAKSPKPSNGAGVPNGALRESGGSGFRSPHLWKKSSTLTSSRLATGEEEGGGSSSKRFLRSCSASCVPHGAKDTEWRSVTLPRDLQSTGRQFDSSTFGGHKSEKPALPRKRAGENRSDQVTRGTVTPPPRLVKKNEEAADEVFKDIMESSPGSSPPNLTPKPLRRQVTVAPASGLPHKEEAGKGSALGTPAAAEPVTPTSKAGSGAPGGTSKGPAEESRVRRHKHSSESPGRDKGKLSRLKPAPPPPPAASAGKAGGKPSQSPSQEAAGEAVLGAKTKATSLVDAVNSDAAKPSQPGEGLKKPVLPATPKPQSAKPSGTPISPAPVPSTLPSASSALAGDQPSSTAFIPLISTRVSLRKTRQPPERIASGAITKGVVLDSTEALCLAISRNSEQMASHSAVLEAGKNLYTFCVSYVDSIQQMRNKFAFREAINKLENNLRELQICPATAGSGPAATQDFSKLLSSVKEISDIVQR
The test system of a further assay is p-EGFR. The experiment in a line: Western blotting in A549 cells. The note with it: Western blot, vs untreated control. In kind it is cell-based, human. An excerpt:
(§1) Figure 3. […] (B) The relative protein expression level of p-EGFR normalised with total EGFR was quantified by the Image J software (C) The relative protein expression level of p-VEGFR-2 normalised with total VEGFR-2. The values are expressed as the mean ± SEM based on three different experiments. ***p < 0.001 indicate a significant difference compared with control.
(§2) The protein extraction and quantification were done as previously described.

The next assay has as its system p-VEGFR-2. The experiment in a line: Western blotting in A549 cells. In kind it is cell-based, human. The note with it: Western blot, vs untreated control.
Description: as §1, §2

In another assay the test system is H441 lung cancer cells. The experiment in a line: Anti-proliferative MTT assay. The note with it: Homo sapiens, NCI-H441, 24 h; for inhibition at 10 µM: read-out: % Growth inhibition ± SEM H441; for IC50: read-out: IC50 (µM) ± SEM H441, MTT, 24 h, n = 3.
Assay [2] addresses T1, recombinant human VEGFR-2/KDR (Homo sapiens, UniProt P35968).
T1 construct: purchased
Put plainly: VEGFR-2 kinase assay (VEGFR-2/KDR ELISA kit). In kind it is biochemical. The note with it: read-out: IC50 (nM) ± SEM VEGFR-2. How it is done: The EGFR kinase assay was carried out in 96-well plates coated with PGT (poly l-glutamic acid l-tyrosine, 4:1, Sigma Aldrich, St. Louis, MO) as previously described. IC50 values were calculated using GraphPad Prism 5. Each experiment was carried out at least three times. The VEGFR-2 kinase assay was carried out in 96-well streptavidin coated plate using recombinant human VEGFR-2/KDR ELISA kit according to manufacturer’s instructions.
A general note: ELISA stands for enzyme-linked immunosorbent assay.

The next assay deals with ROCK1 (Homo sapiens, UniProt Q13464). Put plainly: Kinase selectivity profiling, Z'-LYTE FRET.
Chain of ROCK1 (Q13464 whole entry): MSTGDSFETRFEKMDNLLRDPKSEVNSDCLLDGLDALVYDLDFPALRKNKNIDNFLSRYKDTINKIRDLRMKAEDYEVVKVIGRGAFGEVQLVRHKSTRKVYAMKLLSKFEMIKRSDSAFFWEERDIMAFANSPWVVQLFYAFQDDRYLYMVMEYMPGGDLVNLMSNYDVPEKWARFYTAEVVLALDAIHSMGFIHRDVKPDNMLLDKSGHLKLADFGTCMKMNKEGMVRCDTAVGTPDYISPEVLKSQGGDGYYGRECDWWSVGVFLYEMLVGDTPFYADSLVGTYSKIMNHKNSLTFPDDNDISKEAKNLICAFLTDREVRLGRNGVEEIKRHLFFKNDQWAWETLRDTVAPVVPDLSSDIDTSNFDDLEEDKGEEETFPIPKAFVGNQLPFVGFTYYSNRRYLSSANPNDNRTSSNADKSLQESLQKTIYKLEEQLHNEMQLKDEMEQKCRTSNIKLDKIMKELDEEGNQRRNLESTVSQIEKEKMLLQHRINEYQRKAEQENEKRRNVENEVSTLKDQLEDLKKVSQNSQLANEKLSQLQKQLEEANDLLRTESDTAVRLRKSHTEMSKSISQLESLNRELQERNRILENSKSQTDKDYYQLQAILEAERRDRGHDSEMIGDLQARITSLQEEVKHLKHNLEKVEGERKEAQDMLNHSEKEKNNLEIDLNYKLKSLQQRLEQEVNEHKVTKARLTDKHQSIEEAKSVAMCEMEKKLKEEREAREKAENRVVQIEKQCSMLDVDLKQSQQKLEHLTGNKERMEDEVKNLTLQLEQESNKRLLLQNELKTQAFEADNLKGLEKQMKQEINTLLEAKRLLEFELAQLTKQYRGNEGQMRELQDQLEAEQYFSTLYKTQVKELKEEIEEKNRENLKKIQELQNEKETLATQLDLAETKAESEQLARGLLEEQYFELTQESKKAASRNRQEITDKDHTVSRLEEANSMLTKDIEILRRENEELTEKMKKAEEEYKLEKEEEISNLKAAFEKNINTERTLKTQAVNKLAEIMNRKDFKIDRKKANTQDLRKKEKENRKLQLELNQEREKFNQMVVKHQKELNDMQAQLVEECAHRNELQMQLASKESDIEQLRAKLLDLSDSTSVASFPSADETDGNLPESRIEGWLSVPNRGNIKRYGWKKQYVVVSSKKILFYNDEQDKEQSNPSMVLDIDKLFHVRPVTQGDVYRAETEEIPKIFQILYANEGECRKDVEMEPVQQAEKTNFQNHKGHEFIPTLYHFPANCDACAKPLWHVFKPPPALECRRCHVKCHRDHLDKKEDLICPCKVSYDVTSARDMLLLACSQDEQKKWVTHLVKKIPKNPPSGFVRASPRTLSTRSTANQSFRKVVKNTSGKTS

Bounds are passed on as bounds.

T1 sequence (P35968 20-1356): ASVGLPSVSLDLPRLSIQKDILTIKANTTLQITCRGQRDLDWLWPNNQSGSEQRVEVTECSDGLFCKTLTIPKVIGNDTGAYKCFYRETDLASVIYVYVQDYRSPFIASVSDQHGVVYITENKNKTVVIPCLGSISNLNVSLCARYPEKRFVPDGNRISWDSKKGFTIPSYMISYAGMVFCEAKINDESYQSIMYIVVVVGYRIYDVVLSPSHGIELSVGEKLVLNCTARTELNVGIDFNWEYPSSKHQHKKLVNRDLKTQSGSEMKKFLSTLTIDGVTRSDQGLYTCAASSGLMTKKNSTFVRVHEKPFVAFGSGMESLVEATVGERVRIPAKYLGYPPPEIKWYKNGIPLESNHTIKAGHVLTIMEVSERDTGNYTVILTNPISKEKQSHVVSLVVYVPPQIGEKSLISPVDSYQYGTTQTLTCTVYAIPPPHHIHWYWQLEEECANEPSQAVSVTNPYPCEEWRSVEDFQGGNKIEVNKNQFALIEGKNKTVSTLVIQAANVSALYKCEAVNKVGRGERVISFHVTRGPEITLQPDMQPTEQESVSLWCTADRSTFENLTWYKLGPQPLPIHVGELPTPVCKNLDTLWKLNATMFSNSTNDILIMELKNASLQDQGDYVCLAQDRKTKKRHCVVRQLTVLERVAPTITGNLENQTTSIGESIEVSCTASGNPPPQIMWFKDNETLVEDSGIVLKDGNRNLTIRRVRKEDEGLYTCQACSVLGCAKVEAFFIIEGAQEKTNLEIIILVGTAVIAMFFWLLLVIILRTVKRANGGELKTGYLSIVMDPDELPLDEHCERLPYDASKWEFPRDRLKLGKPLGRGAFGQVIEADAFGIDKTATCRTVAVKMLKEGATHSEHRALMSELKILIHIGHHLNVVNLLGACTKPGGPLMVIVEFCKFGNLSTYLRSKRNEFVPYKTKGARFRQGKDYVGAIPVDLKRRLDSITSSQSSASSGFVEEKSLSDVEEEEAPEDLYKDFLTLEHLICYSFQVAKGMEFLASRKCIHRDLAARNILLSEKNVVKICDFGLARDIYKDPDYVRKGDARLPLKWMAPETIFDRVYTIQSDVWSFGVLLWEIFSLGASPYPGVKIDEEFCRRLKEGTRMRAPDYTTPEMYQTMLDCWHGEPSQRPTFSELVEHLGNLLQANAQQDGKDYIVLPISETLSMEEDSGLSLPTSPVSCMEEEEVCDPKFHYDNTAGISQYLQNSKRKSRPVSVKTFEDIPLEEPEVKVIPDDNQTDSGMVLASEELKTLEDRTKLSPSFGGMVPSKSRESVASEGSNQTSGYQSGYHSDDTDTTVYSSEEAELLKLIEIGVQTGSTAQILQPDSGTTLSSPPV
Chain of EPHB2 (P29323 19-1055): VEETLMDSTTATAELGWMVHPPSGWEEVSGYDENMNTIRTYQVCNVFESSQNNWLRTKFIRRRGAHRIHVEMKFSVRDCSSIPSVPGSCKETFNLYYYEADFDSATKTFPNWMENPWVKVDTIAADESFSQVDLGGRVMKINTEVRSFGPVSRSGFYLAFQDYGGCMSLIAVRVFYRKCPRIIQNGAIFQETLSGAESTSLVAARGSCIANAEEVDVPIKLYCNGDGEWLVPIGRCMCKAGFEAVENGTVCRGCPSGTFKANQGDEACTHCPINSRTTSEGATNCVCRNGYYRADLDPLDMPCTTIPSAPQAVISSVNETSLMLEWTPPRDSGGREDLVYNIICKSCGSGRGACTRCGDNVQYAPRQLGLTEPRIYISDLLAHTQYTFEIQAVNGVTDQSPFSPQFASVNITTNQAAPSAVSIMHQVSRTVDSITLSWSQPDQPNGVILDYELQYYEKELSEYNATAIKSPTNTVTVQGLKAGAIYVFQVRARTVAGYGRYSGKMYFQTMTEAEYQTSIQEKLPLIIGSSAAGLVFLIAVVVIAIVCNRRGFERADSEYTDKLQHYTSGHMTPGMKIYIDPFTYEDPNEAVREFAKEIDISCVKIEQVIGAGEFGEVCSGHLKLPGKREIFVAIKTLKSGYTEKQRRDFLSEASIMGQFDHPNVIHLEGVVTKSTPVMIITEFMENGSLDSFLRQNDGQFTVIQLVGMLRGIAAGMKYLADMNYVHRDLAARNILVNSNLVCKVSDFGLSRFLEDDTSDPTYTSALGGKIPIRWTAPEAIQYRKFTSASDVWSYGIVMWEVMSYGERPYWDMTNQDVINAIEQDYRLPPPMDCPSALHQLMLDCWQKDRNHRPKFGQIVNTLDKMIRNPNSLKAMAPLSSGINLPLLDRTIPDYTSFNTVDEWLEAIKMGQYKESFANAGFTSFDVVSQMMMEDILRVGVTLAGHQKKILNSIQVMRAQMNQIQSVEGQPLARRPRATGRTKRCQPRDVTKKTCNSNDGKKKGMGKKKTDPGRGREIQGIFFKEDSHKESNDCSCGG
Description for H441 lung cancer cells: The compounds were added at a single concentration (10 µM) and the cultures were incubated for 24 h, then the per cent growth inhibition (%GI) was calculated.

As usually defined, the IC50 is the midpoint of a concentration-inhibition curve. One may read the inhibition as the share of the control response that was lost under treatment. As to `CCOC(=O)c1sc(N2N=C(c3ccc(Cl)cc3Cl)CC2c2ccc(OC)cc2)nc1C` (stereo not shown) [Compound 10b, Ethyl-2-(3-(2,4-dichlorophenyl)-5-(4-methoxyphenyl)-4,5-dihydro-1H-pyrazol-1-yl)-4-methylthiazole-5-carboxylate], the IC50 on PKC was above 2000 nM; at EPHB2, above 2 µM; against SYK, 1.12 ± 0.022 µM; in assay [1], 72.4 ± 7.2 µM; against ABL1, above 2 µM; in the assay on H441 lung cancer cells, 4.8 ± 0.1 µM. Moreover, the IC50 in assay [2] is 78.4 ± 1.5 nM; against ROCK1, above 2 µM. In addition, in the assay with A549 cells, the “annexin V-positive apoptotic cells” value is recorded as 16.5%. Besides, the “A549 cancer cell migration” value in the assay on A549 cells migration is on record as “effective in reducing the cancer cell migration”. Besides, the Mean tumour selectivity in assay [1] was found to be 16.1. For the same compound, the “protein expression level of p-EGFR” value with p-EGFR is listed as “significantly downregulated”. For the same compound, the “protein expression level of p-VEGFR-2” value in the assay on p-VEGFR-2 is listed as “significantly downregulated”. The inhibition at 10 µM in the assay on H441 lung cancer cells turned out to be 79.1 ± 2.6%.
Take `COc1ccc(C2CC(c3ccc(Cl)cc3Cl)=NN2c2nc(C)c(C(=O)Nc3ccccc3)s2)cc1OC` (stereo not shown) [Compound 10d, 2-(3-(2,4-Dichlorophenyl)-5-(3,4-dimethoxyphenyl)-4,5-dihydro-1H-pyrazol-1-yl)-4-methyl-N-phenylthiazole-5-carboxamide]: the IC50 is above 2000 nM on PKC; above 2 µM against EPHB2; 0.87 ± 0.031 µM against SYK; 51.4 ± 3.5 µM in assay [1]; above 2 µM on ABL1; 3.8 ± 0.5 µM in the assay on H441 lung cancer cells. Moreover, the values for the IC50 (in [2]; against ROCK1) were 43 ± 2.4 nM and above 2 µM, respectively. In the assay on A549 cells, the “annexin V-positive apoptotic cells” value is listed as 28.5%. Moreover, the “A549 cancer cell migration” value in the assay on A549 cells migration is recorded as “effective in reducing the cancer cell migration”. The compound further displayed a Mean tumour selectivity in assay [1] of 15.3. For the same compound, the “protein expression level of p-EGFR” value with p-EGFR is on record as “significantly downregulated”. Further, the “protein expression level of p-VEGFR-2” value in the assay with p-VEGFR-2 is given as “significantly downregulated”. Also, the inhibition at 10 µM in the assay on H441 lung cancer cells is 89.2 ± 3.9%.

Source of the values: article PMC9415638, “Discovery of novel thiazolyl-pyrazolines as dual EGFR and VEGFR-2 inhibitors endowed with in vitro antitumor activity towards non-small lung cancer” (Journal of Enzyme Inhibition and Medicinal Chemistry, 2022).
